Experimental data from publication PMC4172587 (2014).

Columns and labels:
[1] = system: poly(dA-dT).poly(dA-dT) (DNA, polymer) AT; assay: ITC, polynucleotide titrated into harmalol; details: 15 mM Na+; CP buffer pH 6.8, 25 °C; single-site fit; text b28 prints 0.40±0.02×10^5, Table 3 agrees with 0.44×10^6; per base
[2] = system: poly(dG).poly(dC) (DNA, polymer) G/C; assay: absorbance titration, Scatchard, McGhee-von Hippel; details: Na+ (citrate-phosphate 15 mM); 15 mM CP buffer pH 6.8, 25 °C; cooperative, intrinsic Ki 0.002±0.001 × 10^6, ω 84; DNA as nucleotide phosphate; per base
[3] = system: poly(dG-dC).poly(dG-dC) (DNA, polymer) GC; assay: absorbance titration, Scatchard, McGhee-von Hippel; details: Na+ (citrate-phosphate 15 mM); 15 mM CP buffer pH 6.8, 25 °C; non cooperative; DNA as nucleotide phosphate; per base
[4] = system: poly(dA).poly(dT) (DNA, polymer) A/T; assay: ITC, polynucleotide titrated into harmalol; details: 15 mM Na+; CP buffer pH 6.8, 25 °C; single-site fit; 20 µM harmalol; per base
[5] = system: poly(dG-dC).poly(dG-dC) (DNA, polymer) GC; assay: ITC, polynucleotide titrated into harmalol; details: 15 mM Na+; CP buffer pH 6.8, 25 °C; single-site fit; 20 µM harmalol; per base
[6] = system: poly(dA).poly(dT) (DNA, polymer) A/T; assay: absorbance titration, Scatchard, McGhee-von Hippel; details: Na+ (citrate-phosphate 15 mM); 15 mM CP buffer pH 6.8, 25 °C; cooperative, intrinsic Ki 0.02±0.01 × 10^6, ω 14.0; DNA as nucleotide phosphate; per base
[7] = system: poly(dA).poly(dT) (DNA, polymer) A/T; assay: competition dialysis; details: Na+ (citrate-phosphate 15 mM); apparent; 15 mM CP buffer pH 6.8, 25 °C; 150 µM nucleotide phosphate, 1 µM harmalol; per base
[8] = system: poly(dG).poly(dC) (DNA, polymer) G/C; assay: UV melting, 260 nm; details: Na+ (citrate-phosphate 15 mM); 15 mM CP buffer pH 6.8; 20 µM polymer; harmalol at saturation (rmax); per base
[9] = system: poly(dA-dT).poly(dA-dT) (DNA, polymer) AT; assay: competition dialysis; details: Na+ (citrate-phosphate 15 mM); apparent; 15 mM CP buffer pH 6.8, 25 °C; 150 µM nucleotide phosphate, 1 µM harmalol; per base
[10] = system: poly(dG).poly(dC) (DNA, polymer) G/C; assay: competition dialysis; details: Na+ (citrate-phosphate 15 mM); apparent; 15 mM CP buffer pH 6.8, 25 °C; 150 µM nucleotide phosphate, 1 µM harmalol; per base
[11] = system: poly(dG).poly(dC) (DNA, polymer) G/C; assay: ITC, polynucleotide titrated into harmalol; details: 15 mM Na+; CP buffer pH 6.8, 25 °C; single-site fit; 20 µM harmalol; per base
[12] = system: poly(dA-dT).poly(dA-dT) (DNA, polymer) AT; assay: absorbance titration, Scatchard, McGhee-von Hippel; details: Na+ (citrate-phosphate 15 mM); 15 mM CP buffer pH 6.8, 25 °C; non cooperative; DNA as nucleotide phosphate; per base
[13] = system: poly(dA-dT).poly(dA-dT) (DNA, polymer) AT; assay: fluorescence titration, Scatchard, McGhee-von Hippel; details: Na+ (citrate-phosphate 15 mM); 15 mM CP buffer pH 6.8, 25 °C; non cooperative; DNA as nucleotide phosphate; per base
[14] = system: poly(dG-dC).poly(dG-dC) (DNA, polymer) GC; assay: competition dialysis; details: Na+ (citrate-phosphate 15 mM); apparent; 15 mM CP buffer pH 6.8, 25 °C; 150 µM nucleotide phosphate, 1 µM harmalol; per base
[15] = system: poly(dA-dT).poly(dA-dT) (DNA, polymer) AT; assay: UV melting, 260 nm; details: Na+ (citrate-phosphate 15 mM); 15 mM CP buffer pH 6.8; 20 µM polymer; harmalol at saturation (rmax); per base
[16] = system: poly(dA).poly(dT) (DNA, polymer) A/T; assay: UV melting, 260 nm; details: Na+ (citrate-phosphate 15 mM); 15 mM CP buffer pH 6.8; 20 µM polymer; harmalol at saturation (rmax); per base
[17] = system: poly(dG-dC).poly(dG-dC) (DNA, polymer) GC; assay: fluorescence titration, Scatchard, McGhee-von Hippel; details: Na+ (citrate-phosphate 15 mM); 15 mM CP buffer pH 6.8, 25 °C; non cooperative; DNA as nucleotide phosphate; per base
[18] = system: poly(dA).poly(dT) (DNA, polymer) A/T; assay: as above; details: Na+ (citrate-phosphate 15 mM); 15 mM CP buffer pH 6.8, 25 °C; cooperative, intrinsic constant, ω 20; DNA as nucleotide phosphate; per base
[19] = system: poly(dG).poly(dC) (DNA, polymer) G/C; assay: as above; details: Na+ (citrate-phosphate 15 mM); 15 mM CP buffer pH 6.8, 25 °C; cooperative, intrinsic constant, ω 75; DNA as nucleotide phosphate; per base

With `CC1=NCCc2c1[nH]c1cc(O)ccc21` the Kb [1] was 0.44±0.02 × 10^6 M^-1, the Kiω [2] was 0.18±0.01 × 10^6 M^-1 and the Ki [3] was 4.20±0.05 × 10^6 M^-1. For the same molecule, the Kb [4] was 0.30±0.02 × 10^6 M^-1, the Kb [5] was 3.86±0.07 × 10^6 M^-1 and the Kiω [6] was 0.28±0.01 × 10^6 M^-1. For the same molecule, the Kapp [7] was 3.39±0.02 × 10^5 M^-1, the ΔTm [8] was 6 °C and the Kapp [9] was 4.56±0.04 × 10^5 M^-1. The Kapp [10] was 2.19±0.01 × 10^5 M^-1, the Kb [11] was 0.22±0.03 × 10^6 M^-1 and the Ki [12] was 0.43±0.03 × 10^6 M^-1. For the same molecule, the Kf [13] was 0.45±0.04 × 10^6 M^-1, the Kapp [14] was 13.10±0.07 × 10^5 M^-1 and the ΔTm [15] was 8 °C. For the same molecule, the ΔTm [16] was 6 °C, the Kf [17] was 4.60±0.07 × 10^6 M^-1 and the Kf [18] was 0.015±0.001 × 10^6 M^-1. The Kf [19] was 0.002±0.001 × 10^6 M^-1.
